For orientation: CC50 means the concentration giving 50% cytotoxicity. A word on the EC50: it is the concentration at which the effect is half-maximal. Usually inhibition stands for the share of the control response that was lost under treatment.

Series [1] in a line: Cytotoxicity against African green monkey Vero cells incubated for 24 hrs by WST reagent based EZ-cytox assay. Format: toxicity, cell-based. The note with it: chlorocebus sabaeus.
The nature of series [2]: Selectivity index, ratio of CC50 for African green monkey Vero cells to EC50 for antiviral activity against SARS-CoV-2 expressing nucleocapsid protein infected in African green monkey Vero cells. Type of series: toxicity, cell-based. As to conditions: read-out: Ratio CC50/EC50.
The next series concerns SARS-CoV-2. In words: Antiviral activity against SARS-CoV-2 expressing nucleocapsid protein infected in African green monkey Vero cells assessed as inhibition of viral growth by Hoechst 33342 staining based immunofluorescence analysis. The note with it: Severe acute respiratory syndrome coronavirus 2, Vero. Type of series: functional, organism-based.
For series [3], the system named is Middle East respiratory syndrome-related coronavirus. In words: Antiviral activity against MERS-CoV expressing spike protein infected in African green monkey Vero cells assessed as inhibition of viral growth by Hoechst 33342 staining based immunofluorescence analysis. Type of series: functional, organism-based.
A further series has as its target CYP3A4 (Homo sapiens, UniProt P08684). In words: Inhibition of CYP3A4 in human liver microsomes using […] as substrate at 10 uM preincubated for 5 mins followed by substrate and NADPH addition and measured after 20 mins by HPLC-MS/MS analysis. Type of series: ADME, Microsome. As to conditions: probe sorafenib, time 25 min. Background: Liver microsomes are a subcellular fraction often used to study metabolism.

Series [4] in a line: Cytotoxicity against CHO-K1 cells incubated for 24 hrs by WST reagent based EZ-cytox assay. The note with it: chinese hamster. Format: toxicity, cell-based, Cricetulus griseus.
Series [5] in a line: Cytotoxicity against mouse NIH3T3 cells incubated for 24 hrs by WST reagent based EZ-cytox assay. Format: toxicity, cell-based.
The target in the next series is CYP2C9 (Homo sapiens, UniProt P11712). In words: Inhibition of CYP2C9 in human liver microsomes using tolbutamide as substrate at 10 uM preincubated for 5 mins followed by substrate and NADPH addition and measured after 20 mins by HPLC-MS/MS analysis. Type of series: ADME, Microsome. The note with it: probe tolbutamide, time 25 min.
Chain of CYP2C9 (P11712 whole entry): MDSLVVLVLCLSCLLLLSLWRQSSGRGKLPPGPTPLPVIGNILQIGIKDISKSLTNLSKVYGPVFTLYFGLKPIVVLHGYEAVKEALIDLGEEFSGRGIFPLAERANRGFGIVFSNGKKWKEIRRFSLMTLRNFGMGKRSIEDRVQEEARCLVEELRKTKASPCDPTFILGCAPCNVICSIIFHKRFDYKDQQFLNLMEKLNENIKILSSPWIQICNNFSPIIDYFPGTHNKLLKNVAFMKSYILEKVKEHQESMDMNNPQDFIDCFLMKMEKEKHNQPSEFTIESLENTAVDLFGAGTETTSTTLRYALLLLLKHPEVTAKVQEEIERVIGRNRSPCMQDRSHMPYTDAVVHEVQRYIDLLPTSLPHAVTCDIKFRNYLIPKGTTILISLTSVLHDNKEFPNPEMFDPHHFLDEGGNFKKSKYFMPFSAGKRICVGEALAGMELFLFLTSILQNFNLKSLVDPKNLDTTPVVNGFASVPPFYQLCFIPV
For the next series, the target named is CYP2C19 (Homo sapiens, UniProt P33261). In words: Inhibition of CYP2C19 in human liver microsomes using S-mephenytoin as substrate at 10 uM preincubated for 5 mins followed by substrate and NADPH addition and measured after 20 mins by HPLC-MS/MS analysis. Format: ADME, Microsome. As to conditions: probe S-mephenytoin, time 25 min.
Chain of CYP2C19 (P33261 whole entry): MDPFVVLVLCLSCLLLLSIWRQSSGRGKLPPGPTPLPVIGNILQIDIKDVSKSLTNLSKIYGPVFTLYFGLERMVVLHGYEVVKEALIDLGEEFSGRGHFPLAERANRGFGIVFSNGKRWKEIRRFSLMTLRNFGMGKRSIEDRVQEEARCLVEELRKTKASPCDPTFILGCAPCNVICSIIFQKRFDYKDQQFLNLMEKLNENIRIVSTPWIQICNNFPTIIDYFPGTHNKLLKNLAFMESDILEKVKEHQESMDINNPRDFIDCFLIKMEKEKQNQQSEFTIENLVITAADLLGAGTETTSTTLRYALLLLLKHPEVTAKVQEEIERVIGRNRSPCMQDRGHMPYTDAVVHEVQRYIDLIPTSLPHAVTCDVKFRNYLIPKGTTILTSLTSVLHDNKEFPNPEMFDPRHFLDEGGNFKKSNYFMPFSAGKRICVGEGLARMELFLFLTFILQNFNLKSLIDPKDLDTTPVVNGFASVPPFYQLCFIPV
Series [6] can be described thus: Metabolic stability in mouse liver microsomes assessed as parent compound remaining preincubated for 10 mins followed by NADPH addition and measured after 30 mins by HPLC-MS/MS analysis. As to conditions: time 40 min, read-out: Stability. Format: ADME, Microsome.
The target of a further series is CYP2D6 (Homo sapiens, UniProt P10635). In words: Inhibition of CYP2D6 in human liver microsomes using dextromethorphan as substrate at 10 uM preincubated for 5 mins followed by substrate and NADPH addition and measured after 20 mins by HPLC-MS/MS analysis. Type of series: ADME, Microsome. As to conditions: probe dextromethorphan, time 25 min.
Chain of CYP2D6 (P10635 whole entry): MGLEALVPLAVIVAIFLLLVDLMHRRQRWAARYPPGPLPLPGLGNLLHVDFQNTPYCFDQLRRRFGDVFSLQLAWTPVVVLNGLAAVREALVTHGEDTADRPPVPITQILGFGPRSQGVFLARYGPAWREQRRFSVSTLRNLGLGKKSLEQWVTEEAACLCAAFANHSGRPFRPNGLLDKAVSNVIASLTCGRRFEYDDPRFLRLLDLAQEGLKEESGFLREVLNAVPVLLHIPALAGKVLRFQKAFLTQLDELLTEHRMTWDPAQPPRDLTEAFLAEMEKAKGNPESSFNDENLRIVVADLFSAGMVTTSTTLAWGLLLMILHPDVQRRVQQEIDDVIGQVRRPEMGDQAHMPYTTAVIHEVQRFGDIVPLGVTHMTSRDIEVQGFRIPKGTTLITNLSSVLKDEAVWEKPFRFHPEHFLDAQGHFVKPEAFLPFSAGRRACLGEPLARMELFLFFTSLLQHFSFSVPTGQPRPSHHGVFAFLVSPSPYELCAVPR
Another series has as its target hERG (KCNH2) (Homo sapiens, UniProt Q12809). In words: Inhibition of human ERG at 10 uM by fluorescence polarization relative to control. Type of series: toxicity. A general note: Fluorescence polarisation rises when a labelled molecule tumbles more slowly, as on binding a larger partner.
The nature of series [7]: Cytotoxicity against HFL1 cells incubated for 24 hrs by WST reagent based EZ-cytox assay. Format: toxicity, cell-based. The note with it: human.
The nature of series [8]: Cytotoxicity against mouse L929 cells incubated for 24 hrs by WST reagent based EZ-cytox assay. Format: toxicity, cell-based.
Series [9] in a line: Metabolic stability in human liver microsomes assessed as parent compound remaining preincubated for 10 mins followed by NADPH addition and measured after 30 mins by HPLC-MS/MS analysis. Format: ADME, Microsome. The note with it: time 40 min, read-out: Stability.
Another series addresses T1, CYP1A2 (Homo sapiens, UniProt P05177).
T1 sequence (P05177 whole entry): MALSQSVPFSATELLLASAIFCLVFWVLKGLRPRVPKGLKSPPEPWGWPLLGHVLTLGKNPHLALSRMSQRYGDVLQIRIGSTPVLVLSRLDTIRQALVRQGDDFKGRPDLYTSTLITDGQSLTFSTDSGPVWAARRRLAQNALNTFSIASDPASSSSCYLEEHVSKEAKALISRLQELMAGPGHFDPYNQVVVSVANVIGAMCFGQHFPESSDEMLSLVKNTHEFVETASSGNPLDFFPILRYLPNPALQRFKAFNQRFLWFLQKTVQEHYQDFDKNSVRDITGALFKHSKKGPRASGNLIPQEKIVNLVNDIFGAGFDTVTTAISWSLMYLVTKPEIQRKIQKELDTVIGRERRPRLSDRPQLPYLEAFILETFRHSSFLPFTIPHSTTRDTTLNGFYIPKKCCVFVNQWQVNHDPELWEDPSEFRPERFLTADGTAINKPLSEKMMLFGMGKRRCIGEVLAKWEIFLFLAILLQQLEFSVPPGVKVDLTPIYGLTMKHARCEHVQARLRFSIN
In words: Inhibition of CYP1A2 in human liver microsomes using phenacetin as substrate at 10 uM preincubated for 5 mins followed by substrate and NADPH addition and measured after 20 mins by HPLC-MS/MS analysis. Format: ADME, Microsome. As to conditions: probe phenacetin, time 25 min.

Chain of hERG (KCNH2) (Q12809 whole entry): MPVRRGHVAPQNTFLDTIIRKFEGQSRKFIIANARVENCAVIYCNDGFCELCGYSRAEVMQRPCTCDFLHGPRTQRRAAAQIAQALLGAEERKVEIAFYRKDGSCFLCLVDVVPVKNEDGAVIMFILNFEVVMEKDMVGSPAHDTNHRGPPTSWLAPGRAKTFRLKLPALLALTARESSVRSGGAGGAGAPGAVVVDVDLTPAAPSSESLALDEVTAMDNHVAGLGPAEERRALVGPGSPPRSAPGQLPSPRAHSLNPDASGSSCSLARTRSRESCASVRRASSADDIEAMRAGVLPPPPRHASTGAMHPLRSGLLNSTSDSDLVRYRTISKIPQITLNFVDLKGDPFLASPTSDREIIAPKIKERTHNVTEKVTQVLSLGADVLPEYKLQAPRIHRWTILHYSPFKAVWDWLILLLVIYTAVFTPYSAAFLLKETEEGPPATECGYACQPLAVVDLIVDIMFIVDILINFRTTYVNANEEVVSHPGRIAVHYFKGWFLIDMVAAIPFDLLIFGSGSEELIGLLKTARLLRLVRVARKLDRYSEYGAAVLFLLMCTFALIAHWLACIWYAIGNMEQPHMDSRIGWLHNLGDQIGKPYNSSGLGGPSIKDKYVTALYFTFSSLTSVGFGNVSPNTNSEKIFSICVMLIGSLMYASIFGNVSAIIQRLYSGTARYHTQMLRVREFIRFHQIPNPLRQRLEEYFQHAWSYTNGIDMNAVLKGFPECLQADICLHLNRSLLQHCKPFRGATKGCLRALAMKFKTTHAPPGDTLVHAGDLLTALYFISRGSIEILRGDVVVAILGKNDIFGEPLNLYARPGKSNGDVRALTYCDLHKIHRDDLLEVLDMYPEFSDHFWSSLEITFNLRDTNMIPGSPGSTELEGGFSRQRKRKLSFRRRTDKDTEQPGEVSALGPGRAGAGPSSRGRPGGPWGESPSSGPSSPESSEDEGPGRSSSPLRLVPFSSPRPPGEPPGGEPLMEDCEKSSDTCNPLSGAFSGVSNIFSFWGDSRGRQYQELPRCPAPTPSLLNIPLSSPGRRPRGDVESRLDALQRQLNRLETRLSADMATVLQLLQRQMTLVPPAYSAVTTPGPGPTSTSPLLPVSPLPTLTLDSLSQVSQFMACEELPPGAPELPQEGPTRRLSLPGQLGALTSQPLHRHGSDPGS
Chain of CYP3A4 (P08684 whole entry): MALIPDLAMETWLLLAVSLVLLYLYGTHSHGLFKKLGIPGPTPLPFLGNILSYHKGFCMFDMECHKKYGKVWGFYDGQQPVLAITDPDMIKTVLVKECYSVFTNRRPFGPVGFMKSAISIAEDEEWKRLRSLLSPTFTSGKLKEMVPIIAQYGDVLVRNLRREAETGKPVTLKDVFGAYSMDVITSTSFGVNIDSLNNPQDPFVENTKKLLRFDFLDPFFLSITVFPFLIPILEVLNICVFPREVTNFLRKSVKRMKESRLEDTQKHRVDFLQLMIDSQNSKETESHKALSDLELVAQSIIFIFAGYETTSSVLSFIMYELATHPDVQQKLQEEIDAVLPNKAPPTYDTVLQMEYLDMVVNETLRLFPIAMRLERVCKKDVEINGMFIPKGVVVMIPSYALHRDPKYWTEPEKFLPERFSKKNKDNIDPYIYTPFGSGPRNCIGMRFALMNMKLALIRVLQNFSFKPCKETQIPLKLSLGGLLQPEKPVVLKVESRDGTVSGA

Molecule `CCC(CC)COC(=O)[C@H](C)N[P@](=O)(OC[C@H]1O[C@@](C#N)(c2ccc3c(N)ncnn23)[C@H](O)[C@@H]1O)Oc1ccccc1` returned a CC50 at 24 h in [1] of more than 25 µM.
As for `O=C(Nc1cc(Cl)cc(Cl)c1)c1n[nH]c2ccccc12`, the CC50 at 24 h in series [1] was more than 25 µM. Besides, in series [2], the selectivity ratio was determined as 1. Besides, the results for the EC50 (with SARS-CoV-2; in series [3]) were more than 25 µM and 1.7 µM, respectively.
As for `Cc1cc(C)cc(NC(=O)c2n[nH]c3ccc(Cl)cc23)c1`, in series [1], the CC50 at 24 h was more than 25 µM. Also, the selectivity ratio in series [2] was more than 11.1. The EC50 in the series with SARS-CoV-2 is 2.3 µM.
Take `O=C(Nc1ccccc1Cl)c1n[nH]c2ccc(Cl)cc12`: in series [1], the CC50 at 24 h is more than 25 µM. Moreover, the selectivity ratio in [2] worked out at 1. Moreover, the EC50 with SARS-CoV-2 is more than 25 µM.
Consider `O=C(Nc1cc(Cl)cc(Cl)c1)c1n[nH]c2ccc(Cl)cc12`, for which the inhibition at 20 min, 10 µM against CYP3A4 turned out to be 54%; against CYP2C9 it was 14%; on CYP2C19, 8%; at CYP2D6 it was 1%; against CYP1A2, 11%. Besides, the CC50 at 24 h was more than 100 µM in series [4]; more than 20 µM in series [1]; more than 100 µM in series [5]; more than 100 µM in series [7]; more than 100 µM in series [8]. Further, the selectivity ratio in [2] was more than 36. The values for the remaining at 0.5 h in series [6] and in [9] were 48% and 97%, respectively. Further, the EC50 in the series on SARS-CoV-2 is 0.69 µM. Also, the inhibition at 10 µM against hERG (KCNH2) is less than 1%.
For the molecule `O=C(Nc1ccc(Cl)cc1)c1n[nH]c2ccc(Cl)cc12`, the CC50 at 24 h in series [1] was more than 25 µM. Moreover, the selectivity ratio in [2] turned out to be 1. Also, the EC50 in the series with SARS-CoV-2 was more than 25 µM.
In turn, `O=C(Nc1ccccc1F)c1n[nH]c2ccc(Cl)cc12` returned a 50% cytotoxic concentration (CC50) at 24 h in series [1] of more than 25 µM. Moreover, the selectivity ratio in series [2] is 1. Also, in the series with SARS-CoV-2, the EC50 is more than 25 µM.
`O=C(NC1CCCCC1)c1n[nH]c2ccc(Cl)cc12` came in with a CC50 at 24 h in series [1] of more than 25 µM. The selectivity ratio in [2] came to 1. Besides, the EC50 in the series on SARS-CoV-2 was more than 25 µM.
For the molecule `O=C(Nc1cc(Cl)cc(Cl)c1)c1n[nH]c2cc(F)ccc12`, the CC50 at 24 h in [1] is more than 25 µM. The selectivity ratio in series [2] was more than 21.4. In the series on SARS-CoV-2, the EC50 is 1.2 µM.
On the same counts, the results for `N#Cc1ccc(NC(=O)c2n[nH]c3ccc(Cl)cc23)cc1` are more than 25 µM, 1 and more than 25 µM.
For the molecule `O=C(Nc1cccc(C(F)(F)F)c1)c1n[nH]c2ccc(Cl)cc12`, the CC50 at 24 h in [1] was more than 25 µM. Also, the selectivity ratio in series [2] was more than 8.8. In addition, the EC50 in the series on SARS-CoV-2 amounted to 2.8 µM.
In series [1], `O=C(Nc1cccc([N+](=O)[O-])c1)c1n[nH]c2ccc(Cl)cc12` yielded a cytotoxic concentration (CC50) at 24 h of more than 25 µM. Besides, in series [2], the selectivity ratio came to 1. For the same molecule, the EC50 in the series on SARS-CoV-2 is more than 25 µM.
The molecule `N#Cc1cccc(NC(=O)c2n[nH]c3ccc(Cl)cc23)c1` came in with a CC50 at 24 h in series [1] of more than 25 µM. For the same molecule, in [2], the selectivity ratio was more than 13.7. The EC50 with SARS-CoV-2 came to 1.8 µM.
Regarding `N#Cc1ccccc1NC(=O)c1n[nH]c2ccc(Cl)cc12`, in series [1], the CC50 at 24 h was more than 25 µM. For the same molecule, in [2], the selectivity ratio is 1. In the series on SARS-CoV-2, the EC50 is more than 25 µM.
`Cc1cccc(NC(=O)c2n[nH]c3ccc(Cl)cc23)c1` gave a CC50 at 24 h in series [1] of more than 25 µM. Further, in [2], the selectivity ratio was 1. Also, in the series on SARS-CoV-2, the EC50 was more than 25 µM.
Regarding `O=C(Nc1cc(Cl)cc(Cl)c1)c1n[nH]c2cc(Cl)ccc12`, in [1], the CC50 at 24 h is more than 25 µM. The selectivity ratio in series [2] stood at 1. Besides, the EC50 in the series with SARS-CoV-2 was more than 25 µM.
On to `O=C(Nc1cc(Cl)cc(Cl)c1)c1n[nH]c2ccc(F)cc12`, for which the CC50 at 24 h in [1] was more than 25 µM. The selectivity ratio in series [2] was found to be 1. The EC50 in the series on SARS-CoV-2 was more than 25 µM.
For the molecule `O=C(Nc1cccc(OC(F)(F)F)c1)c1n[nH]c2ccc(Cl)cc12`, the CC50 at 24 h in [1] is more than 25 µM. The selectivity ratio in series [2] is more than 4.6. The EC50 with SARS-CoV-2 came to 5.5 µM.
Taken in the same sequence, the figures for `CCCCNC(=O)c1n[nH]c2ccc(Cl)cc12` were more than 25 µM, 1 and more than 25 µM.
On to `O=C(Nc1cccc(F)c1)c1n[nH]c2ccc(Cl)cc12`, for which, in series [1], the CC50 at 24 h was more than 25 µM. Also, the selectivity ratio in series [2] stood at 1. Moreover, the EC50 with SARS-CoV-2 was more than 25 µM.
As for `O=C(Nc1ccc(F)cc1)c1n[nH]c2ccc(Cl)cc12`, in series [1], the CC50 at 24 h was more than 25 µM. Further, the selectivity ratio in series [2] came to 1. In addition, the EC50 in the series with SARS-CoV-2 is more than 25 µM.

Source of the values: ChEMBL document CHEMBL6096632, “Synthesis and evaluation of N-arylindazole-3-carboxamide derivatives as novel antiviral agents against SARS-CoV-2” (Bioorg Med Chem Lett, 2024).
